# Reference: patent US10308643B2, “Heterocyclic compound” (Takeda Pharmaceutical Company Limited, priority 2015, dated 2019)
# What was measured:
# Type in all cases: biochemical
# HDAC1 enzyme = target: T1, HDAC1 enzyme (Homo sapiens, UniProt Q13547); assay: HDAC1/6 Enzyme Inhibitory Assay (HDAC-Glo I/II Assay kit), HDAC1; details: 1 μM test compound; wells without enzyme = 100% inhibition; read-out: HDAC1 inhibitory rate (%) (1 μM)
# T1 construct: transducing full length HDAC1 and HDAC6 genes into Sf-9 insect cells; GST; purchased SignalChem; host or cells: Sf-9 insect cells
# Procedure, shortened: (§1)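 Steps: compound in pH 7.5 Tris buffer plus enzyme (full-length HDAC1 or HDAC6 from Sf-9, GST-purified), 60 min at room temperature; add HDAC-Glo substrate-developer; react 20 min; read luminescence. Relative activity is calculated against enzyme-free wells taken as full inhibition.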
# HDAC9 enzyme = target: T2, HDAC9 enzyme (Homo sapiens, UniProt Q9UKV0); assay: HDAC9 Enzyme Inhibitory Assay (HDAC-Glo class IIa); details: 1 μM test compound; wells without enzyme = 100% inhibition; read-out: HDAC9 inhibitory rate (%) (1 μM)
# T2 construct: transducing full length HDAC9 gene into Sf-9 insect cells; made in house; host or cells: Sf-9 insect cells
# Procedure, shortened: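 Full-length human HDAC9 from Sf-9 cells, Ni-NTA purified, preincubated with compound for 60 min at room temperature in Tris-HCl pH 7.5 buffer (MgCl2, KCl, NaCl, glutathione, Tween-20). HDAC-Glo class IIa substrate-developer added; luminescence read after 20 min, with no-enzyme wells defining 100% inhibition.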
# HDAC6 enzyme = target: T3, HDAC6 enzyme (Homo sapiens, UniProt Q9UBN7); assay: HDAC1/6 Enzyme Inhibitory Assay (HDAC-Glo I/II Assay kit), HDAC6; details: 1 μM test compound; wells without enzyme = 100% inhibition; read-out: HDAC6 inhibitory rate (%) (1 μM)
# T3 construct: transducing full length HDAC1 and HDAC6 genes into Sf-9 insect cells; GST; purchased SignalChem; host or cells: Sf-9 insect cells
# T3 sequence (Q9UBN7 1-1215): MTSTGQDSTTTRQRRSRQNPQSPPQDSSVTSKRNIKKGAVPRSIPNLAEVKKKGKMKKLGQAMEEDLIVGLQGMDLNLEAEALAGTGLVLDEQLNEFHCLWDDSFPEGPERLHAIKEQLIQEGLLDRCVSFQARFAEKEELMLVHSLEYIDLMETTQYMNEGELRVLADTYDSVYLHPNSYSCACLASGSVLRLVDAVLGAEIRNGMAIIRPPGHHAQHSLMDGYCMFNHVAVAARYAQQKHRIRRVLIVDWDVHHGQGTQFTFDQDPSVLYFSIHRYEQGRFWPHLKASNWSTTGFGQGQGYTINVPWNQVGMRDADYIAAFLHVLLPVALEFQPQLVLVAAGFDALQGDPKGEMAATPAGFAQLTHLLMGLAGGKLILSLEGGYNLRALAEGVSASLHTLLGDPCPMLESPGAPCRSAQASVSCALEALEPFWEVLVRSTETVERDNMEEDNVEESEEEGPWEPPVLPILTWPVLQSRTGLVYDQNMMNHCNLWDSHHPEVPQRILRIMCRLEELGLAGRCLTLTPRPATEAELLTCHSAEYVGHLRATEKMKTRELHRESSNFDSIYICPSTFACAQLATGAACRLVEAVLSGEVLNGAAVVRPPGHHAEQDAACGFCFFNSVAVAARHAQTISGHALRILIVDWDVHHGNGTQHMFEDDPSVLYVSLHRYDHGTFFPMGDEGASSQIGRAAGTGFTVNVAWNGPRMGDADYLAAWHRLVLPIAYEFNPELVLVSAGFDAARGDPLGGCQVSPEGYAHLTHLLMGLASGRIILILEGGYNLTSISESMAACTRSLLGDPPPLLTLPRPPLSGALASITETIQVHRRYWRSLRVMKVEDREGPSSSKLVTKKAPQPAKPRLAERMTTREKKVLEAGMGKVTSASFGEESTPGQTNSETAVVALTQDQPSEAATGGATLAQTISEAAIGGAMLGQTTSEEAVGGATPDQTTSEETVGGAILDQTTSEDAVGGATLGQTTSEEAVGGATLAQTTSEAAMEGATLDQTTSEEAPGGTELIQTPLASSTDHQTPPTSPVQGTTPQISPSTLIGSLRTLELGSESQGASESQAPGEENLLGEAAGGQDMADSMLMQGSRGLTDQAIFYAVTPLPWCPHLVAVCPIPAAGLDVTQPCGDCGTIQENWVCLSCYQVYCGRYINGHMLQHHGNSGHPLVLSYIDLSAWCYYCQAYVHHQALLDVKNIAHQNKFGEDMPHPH
# Procedure, shortened: as §1
# T2 sequence (Q9UKV0 whole entry, species assumed): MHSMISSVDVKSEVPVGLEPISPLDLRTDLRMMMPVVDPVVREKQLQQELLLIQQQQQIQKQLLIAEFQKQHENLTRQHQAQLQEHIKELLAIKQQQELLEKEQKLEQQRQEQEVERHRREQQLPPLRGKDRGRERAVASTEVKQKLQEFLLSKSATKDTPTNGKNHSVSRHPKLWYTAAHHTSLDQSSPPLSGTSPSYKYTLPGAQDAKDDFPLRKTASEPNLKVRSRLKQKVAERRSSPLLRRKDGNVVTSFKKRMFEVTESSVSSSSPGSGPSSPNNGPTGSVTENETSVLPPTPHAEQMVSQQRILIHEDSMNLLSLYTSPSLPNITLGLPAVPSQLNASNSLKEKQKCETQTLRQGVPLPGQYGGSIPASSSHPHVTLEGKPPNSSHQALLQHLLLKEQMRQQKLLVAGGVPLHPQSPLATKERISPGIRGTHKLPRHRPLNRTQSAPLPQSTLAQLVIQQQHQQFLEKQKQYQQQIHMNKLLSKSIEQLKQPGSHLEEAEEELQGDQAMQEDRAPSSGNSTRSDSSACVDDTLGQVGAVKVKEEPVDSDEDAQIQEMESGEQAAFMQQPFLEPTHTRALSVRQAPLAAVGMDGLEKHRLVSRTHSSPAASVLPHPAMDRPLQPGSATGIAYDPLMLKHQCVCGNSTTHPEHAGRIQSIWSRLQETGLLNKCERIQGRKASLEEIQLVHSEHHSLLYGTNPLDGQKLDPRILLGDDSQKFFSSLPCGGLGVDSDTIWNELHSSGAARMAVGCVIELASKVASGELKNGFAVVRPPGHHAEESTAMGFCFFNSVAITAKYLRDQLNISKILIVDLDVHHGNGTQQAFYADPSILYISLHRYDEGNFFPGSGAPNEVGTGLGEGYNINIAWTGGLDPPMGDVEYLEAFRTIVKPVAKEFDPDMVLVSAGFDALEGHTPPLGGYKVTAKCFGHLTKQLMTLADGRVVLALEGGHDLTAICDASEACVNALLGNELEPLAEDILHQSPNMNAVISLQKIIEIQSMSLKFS
# T1 sequence (Q13547 whole entry): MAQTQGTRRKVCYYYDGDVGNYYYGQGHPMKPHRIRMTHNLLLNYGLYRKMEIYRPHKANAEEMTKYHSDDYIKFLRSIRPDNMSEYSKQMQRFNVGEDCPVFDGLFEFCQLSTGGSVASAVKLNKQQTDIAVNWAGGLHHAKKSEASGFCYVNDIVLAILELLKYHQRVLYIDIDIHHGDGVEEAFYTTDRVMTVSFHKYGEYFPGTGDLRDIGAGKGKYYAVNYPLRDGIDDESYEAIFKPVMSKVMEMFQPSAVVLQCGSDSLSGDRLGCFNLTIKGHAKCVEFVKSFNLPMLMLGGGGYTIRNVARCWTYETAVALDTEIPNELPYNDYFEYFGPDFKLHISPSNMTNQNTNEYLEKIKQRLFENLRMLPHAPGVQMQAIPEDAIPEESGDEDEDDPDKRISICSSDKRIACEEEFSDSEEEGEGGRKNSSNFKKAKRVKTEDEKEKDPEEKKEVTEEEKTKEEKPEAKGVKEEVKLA
Structure (SMILES),inhibition at 1 µM (HDAC1 enzyme) [%],inhibition at 1 µM (HDAC9 enzyme) [%],inhibition at 1 µM (HDAC6 enzyme) [%]
"O=C1c2cc(-c3noc(C(F)(F)F)n3)ccc2CN1[C@H]1CCc2ccccc21 [Example 24, 2-((1S)-2,3-dihydro-1H-inden-1-yl)-6-(5-(trifluoromethyl)-1,2,4-oxadiazol-3-yl)isoindolin-1-one]",6,52,95
"O=C1c2cc(-c3noc(C(F)(F)F)n3)ccc2CN1[C@@H]1CCc2ccccc21 [Example 25, 2-((1R)-2,3-dihydro-1H-inden-1-yl)-6-(5-(trifluoromethyl)-1,2,4-oxadiazol-3-yl)isoindolin-1-one]",7,39,92
"CC(C)(C)OC(=O)N[C@@H]1CCCC[C@H]1N1Cc2ccc(-c3noc(C(F)(F)F)n3)cc2C1=O [Example 26, tert-butyl ((1R,2R)-2-(1-oxo-6-(5-(trifluoromethyl)-1,2,4-oxadiazol-3-yl)-1,3-dihydro-2H-isoindol-2-yl)cyclohexyl)carbamate]",11,47,98
"CC(C)(C)OC(=O)N[C@H]1CCCC[C@@H]1N1Cc2ccc(-c3noc(C(F)(F)F)n3)cc2C1=O [Example 27, tert-butyl ((1S,2S)-2-(1-oxo-6-(5-(trifluoromethyl)-1,2,4-oxadiazol-3-yl)-1,3-dihydro-2H-isoindol-2-yl)cyclohexyl)carbamate]",16,76,36
"N[C@@H]1CCCC[C@H]1N1Cc2ccc(-c3noc(C(F)(F)F)n3)cc2C1=O [Example 28, 2-((1R,2R)-2-aminocyclohexyl)-6-[5-(trifluoromethyl)-1,2,4-oxadiazol-3-yl)isoindolin-1-one]",3,78,89
"N[C@H]1CCCC[C@@H]1N1Cc2ccc(-c3noc(C(F)(F)F)n3)cc2C1=O [Example 29, 2-((1S,2S)-2-aminocyclohexyl)-6-(5-(trifluoromethyl)-1,2,4-oxadiazol 3-yl)isoindolin-1-one]",-2,45,34
"CC(C)(C)OC(=O)N1CC[C@H](N2Cc3ccc(-c4noc(C(F)(F)F)n4)cc3C2=O)[C@@H](c2ccccc2)C1 [Example 30, tert-butyl (3S,4S)-4-(1-oxo-6-(5-(trifluoromethyl)-1,2,4-oxadiazol-3-yl)-1,3-dihydro-2H-isoindol-2-yl)-3-phenylpiperidine-1-carboxylate]",30,84,97
"O=C1c2cc(-c3noc(C(F)(F)F)n3)ccc2CN1[C@H]1CCNC[C@@H]1c1ccccc1 [Example 31, 2-((3S,4S)-3-phenylpiperidin-4-yl)-6-(5-(trifluoromethyl)-1,2,4-oxadiazol-3-yl)isoindolin-1-one]",78,97,99
"O=C(N[C@@H]1CCCC[C@H]1N1Cc2ccc(-c3noc(C(F)(F)F)n3)cc2C1=O)C1CC1 [Example 32, N-((1R,2R)-2-(1-oxo-6-(5-(trifluoromethyl)-1,2,4-oxadiazol-3-yl)-1,3-dihydro-2H-isoindol-2-yl)cyclohexyl)cyclopropanecarboxamide]",5,52,99
"O=C(N[C@H]1CCCC[C@@H]1N1Cc2ccc(-c3noc(C(F)(F)F)n3)cc2C1=O)C1CC1 [Example 33, N-((1S,2S)-2-(1-oxo-6-(5-(trifluoromethyl)-1,2,4-oxadiazol-3-y)-1,3-dihydro-2H-isoindol-2-yl)cyclohexyl)cyclopropanecarboxamide]",7,46,83
"CC1(C(=O)N[C@@H]2CCCC[C@H]2N2Cc3ccc(-c4noc(C(F)(F)F)n4)cc3C2=O)CC1 [Example 36, 1-methyl-N-((1R,2R)-2-(1-oxo-6-(5-(trifluoromethyl)-1,2,4-oxadiazol-3-yl)-1,3-dihydro-2H-isoindol-2-yl)cyclohexyl) cyclopropanecarboxamide]",12,66,98
"O=C(N[C@@H]1CCCC[C@H]1N1Cc2ccc(-c3noc(C(F)(F)F)n3)cc2C1=O)C1CCOCC1 [Example 37, N-((1R,2R)-2-(1-oxo-6-(5-(trifluoromethyl)-1,2,4-oxadiazol-3-yl)-1,3-dihydro-2H-isoindol-2-yl)cyclohexyl)tetrahydro-2H-pyran-4-carboxamide]",1,19,96
"CC(=O)N1CCC(N2Cc3ncc(-c4noc(C(F)(F)F)n4)cc3C2=O)CC1 [Example 38, 6-(1-acetylpiperidin-4-yl)-3-(5-(trifluoromethyl)-1,2,4-oxadiazol-3-yl)-6,7-dihydro-5H-pyrrolo[3,4-b]pyridin-5-one]",25,82,90
"CC(=O)N1CCCC(N2Cc3ncc(-c4noc(C(F)(F)F)n4)cc3C2=O)C1 (stereo not drawn) [Example 39, 6-(1-acetylpiperidin-3-yl)-3-(5-(trifluoromethyl)-1,2,4-oxadiazol-3-yl)-6,7-dihydro-5H-pyrrolo[3,4-b]pyridin-5-one]",23,86,91
"O=C(c1ccccc1)N1CCCC(N2Cc3ncc(-c4noc(C(F)(F)F)n4)cc3C2=O)C1 (stereo not drawn) [Example 40, 6-(1-benzoylpiperidin-3-yl)-3-(5-(trifluoromethyl)-1,2,4-oxadiazol-3-yl)-6,7-dihydro-5H-pyrrolo[3,4-b]pyridin-5-one]",56,97,95
"O=C(Cc1ccc(F)cc1)N1CCCC(N2Cc3ncc(-c4noc(C(F)(F)F)n4)cc3C2=O)C1 (stereo not drawn) [Example 41, 6-(1-((4-fluorophenyl)acetyl)piperidin-3-yl)-3-(5-(trifluoromethyl)-1,2,4-oxadiazol-3-yl)-6,7-dihydro-5H-pyrrolo[3,4-b]pyridin-5-one]",37,94,93
"CC1(C(=O)N[C@@H]2CCCC[C@H]2N2Cc3ccc(-c4noc(C(F)(F)F)n4)cc3C2=O)COC1 [Example 42, 3-methyl-N-((1R,2R)-2-(1-oxo-6-(5-(trifluoromethyl)-1,2,4-oxadiazol-3-yl)-1,3-dihydro-2H-isoindol-2-yl)cyclohexyl)oxetane-3-carboxamide]",15,41,100
"NC(=O)N1CC[C@@H](N2Cc3ccc(-c4noc(C(F)(F)F)n4)cc3C2=O)[C@H](c2ccccc2)C1 [Example 43, (3R,4R)-4-(1-oxo-6-(5-(trifluoromethyl)-1,2,4-oxadiazol-3-yl)-1,3-dihydro-2H-isoindol-2-yl)-3-phenylpiperidine-1-carboxamide]",90,96,99
"CCNC(=O)N1CC[C@@H](N2Cc3ccc(-c4noc(C(F)(F)F)n4)cc3C2=O)[C@H](c2ccccc2)C1 [Example 44, (3R,4R)-N-ethyl-4-(1-oxo-6-(5-(trifluoromethyl)-1,2,4-oxadiazol-3-yl)-1,3-dihydro-2H-isoindol-2-yl)-3-phenylpiperidine-1-carboxamide]",88,95,98
